# Source: paper PMC9046089, “CCNE1 amplification is synthetic lethal with PKMYT1 kinase inhibition” (Nature, 2022)
# Several values for one entry are separate records, joined by “and”; a condition that tells them apart may be missing. Equal entries are not always repeated.
# Experiments:
# Format in all cases: in vivo, mouse
# [1] = test system: OVCAR3 xenografts; assay: Cell line-derived xenograft, tumour growth; conditions: Gem 20mg/kg QWx4 IP
# Procedure: (§1) HCC1569, OVCAR3 and SUM149PT cells were implanted at 5 × 10^6 cells per mouse into the right flanks of female CB17-SCID, SCID-beige and NOD-SCID mice respectively (5–7 weeks old; Charles River), in 1:1 Matrigel:medium (Matrigel Corning, cat. no. CB35248).
# (§2) Gemcitabine was administered once weekly intraperitoneally in saline. Animals were monitored for tumour volume, clinical signs and body weight three times per week. Tumour volume was measured using a digital calliper and calculated using the formula 0.52 × L × W^2, where L is length and W is width. Response to treatment was evaluated for tumour growth inhibition (% TGI). […] TV is tumour volume and subscripts indicate treatment group and time of sampling. According to NIACC and IACUC approved animal protocols, mice were euthanized as soon as their tumour volume exceeded 2,000 mm^3. Change in body weight (BW) was calculated using the formula: %BW change = (BWlast − BWday0/BWday0) × 100. BW change was calculated based on individual body weight changes relative to day 0. Statistical significance relative to vehicle control or other test groups was established by one-way ANOVA followed by Fisher’s least significant difference test for multiple groups and unpaired t-test for two group comparisons (GraphPad Prism v9.0). Investigators were not blinded during data collection and analysis.
# [2] = test system: HCC1569 xenografts; assay: Cell line-derived xenograft, tumour growth; conditions: Gem 20mg/kg QWx4 IP
# Procedure: as §1, §2
# [3] = Body weight change of tumour-bearing mice; conditions: Gem 20mg/kg QWx4 IP, individual mice
# Procedure: as §2
smiles,measurement,setting,value
Nc1ccn([C@@H]2O[C@H](CO)[C@@H](O)C2(F)F)c(=O)n1 [Gem],Tumor growth of OVCAR3 xenografts,"[1]; time 0, individual animals",127.251 and 90.8608 and 112.694 and 96.336 and 125.032 and 141.631 and 118.987
same,Tumor growth of OVCAR3 xenografts,"[1]; time 3, individual animals",203.437 and 160.884 and 245.447 and 183.946 and 210.941 and 179.854 and 163.096
same,Tumor growth of OVCAR3 xenografts,"[1]; time 7, individual animals",169.802 and 183.034 and 268.576 and 188.758 and 168.18 and 112.682 and 213.401
same,Tumor growth of OVCAR3 xenografts,"[1]; time 9, individual animals",250.578 and 145.319 and 296.396 and 174.266 and 208.875 and 111.675 and 222.442
same,Tumor growth of OVCAR3 xenografts,"[1]; time 11, individual animals",150.312 and 146.391 and 223.166 and 200.774 and 206.854 and 146.012 and 157.334
same,Tumor growth of OVCAR3 xenografts,"[1]; time 14, individual animals",213.268 and 123.935 and 200.751 and 155.809 and 196.515 and 140.875 and 141.404
same,Tumor growth of OVCAR3 xenografts,"[1]; time 16, individual animals",237.66 and 135.959 and 229.1 and 226.618 and 235.663 and 103.266 and 203.735
same,Tumor growth of OVCAR3 xenografts,"[1]; time 18, individual animals",251.017 and 162.673 and 318.873 and 214.059 and 306.209 and 174.974 and 210.077
same,Tumor growth of OVCAR3 xenografts,"[1]; time 21, individual animals",247.655 and 170.92 and 321.104 and 222.893 and 230.514 and 99.1867 and 166.154
same,Tumor growth of OVCAR3 xenografts,"[1]; time 23, individual animals",217.609 and 142.992 and 287.288 and 218.481 and 211.021 and 149.048 and 110.272
same,Tumor growth of OVCAR3 xenografts,"[1]; time 25, individual animals",172.222 and 104.59 and 228.551 and 206.723 and 216.753 and 107.406 and 123.877
same,Tumor growth of OVCAR3 xenografts,"[1]; time 28, individual animals",184.75 and 98.3676 and 117.318 and 112.167 and 170.273 and 123.013 and 138.241
same,Tumor growth of OVCAR3 xenografts,"[1]; time 31, individual animals",217.819 and 125.965 and 185.385 and 170.168 and 195 and 193.032 and 178.082
same,Tumor growth of OVCAR3 xenografts,"[1]; time 35, individual animals",357.498 and 160.976 and 228.46 and 273.584 and 249.247 and 117.028 and 138.719
same,Tumor growth of HCC1569 xenografts,"[2]; time 0, individual animals",105.749 and 117.204 and 102.711 and 148.478 and 128.24 and 85.4122 and 124.681
same,HCC1569 tumor volume (mm3),"[2]; time 0, individual mice",105.749 mm3 and 117.204 mm3 and 102.711 mm3 and 148.478 mm3 and 128.24 mm3 and 85.4122 mm3 and 124.681 mm3
same,Tumor growth of HCC1569 xenografts,"[2]; time 3, individual animals",151.536 and 159.659 and 162.777 and 151.443 and 177.63 and 154.669 and 192.079
same,HCC1569 tumor volume (mm3),"[2]; time 3, individual mice",151.536 mm3 and 159.659 mm3 and 162.777 mm3 and 151.443 mm3 and 177.63 mm3 and 154.669 mm3 and 192.079 mm3
same,Tumor growth of HCC1569 xenografts,"[2]; time 7, individual animals",138.854 and 145.293 and 143.642 and 108.998 and 199.13 and 137.034 and 160.487
same,HCC1569 tumor volume (mm3),"[2]; time 7, individual mice",138.854 mm3 and 145.293 mm3 and 143.642 mm3 and 108.998 mm3 and 199.13 mm3 and 137.034 mm3 and 160.487 mm3
same,Tumor growth of HCC1569 xenografts,"[2]; time 9, individual animals",174.796 and 137.503 and 143.242 and 176.878 and 226.134 and 163.467 and 188.183
same,HCC1569 tumor volume (mm3),"[2]; time 9, individual mice",174.796 mm3 and 137.503 mm3 and 143.242 mm3 and 176.878 mm3 and 226.134 mm3 and 163.467 mm3 and 188.183 mm3
same,Tumor growth of HCC1569 xenografts,"[2]; time 11, individual animals",223.015 and 184.936 and 195 and 179.883 and 241.724 and 153.608 and 171.36
same,HCC1569 tumor volume (mm3),"[2]; time 11, individual mice",223.015 mm3 and 184.936 mm3 and 195 mm3 and 179.883 mm3 and 241.724 mm3 and 153.608 mm3 and 171.36 mm3
same,Tumor growth of HCC1569 xenografts,"[2]; time 14, individual animals",204.003 and 261.558 and 183.38 and 118.879 and 239.252 and 185.171 and 204.752
same,HCC1569 tumor volume (mm3),"[2]; time 14, individual mice",204.003 mm3 and 261.558 mm3 and 183.38 mm3 and 118.879 mm3 and 239.252 mm3 and 185.171 mm3 and 204.752 mm3
same,Tumor growth of HCC1569 xenografts,"[2]; time 16, individual animals",195.461 and 216.259 and 164.879 and 153.977 and 196.654 and 193.17 and 190.906
same,HCC1569 tumor volume (mm3),"[2]; time 16, individual mice",195.461 mm3 and 216.259 mm3 and 164.879 mm3 and 153.977 mm3 and 196.654 mm3 and 193.17 mm3 and 190.906 mm3
same,Tumor growth of HCC1569 xenografts,"[2]; time 18, individual animals",221.924 and 212.425 and 129.02 and 208.213 and 166.677 and 229.196 and 227.014
same,HCC1569 tumor volume (mm3),"[2]; time 18, individual mice",221.924 mm3 and 212.425 mm3 and 129.02 mm3 and 208.213 mm3 and 166.677 mm3 and 229.196 mm3 and 227.014 mm3
same,Tumor growth of HCC1569 xenografts,"[2]; time 21, individual animals",185.067 and 156.685 and 149.724 and 161.993 and 145.441 and 216.395 and 247.024
same,HCC1569 tumor volume (mm3),"[2]; time 21, individual mice",185.067 mm3 and 156.685 mm3 and 149.724 mm3 and 161.993 mm3 and 145.441 mm3 and 216.395 mm3 and 247.024 mm3
same,Tumor growth of HCC1569 xenografts,"[2]; time 23, individual animals",177.467 and 131.768 and 165.163 and 189.467 and 130.853 and 205.401 and 303.013
same,HCC1569 tumor volume (mm3),"[2]; time 23, individual mice",177.467 mm3 and 131.768 mm3 and 165.163 mm3 and 189.467 mm3 and 130.853 mm3 and 205.401 mm3 and 303.013 mm3
same,Change in body weight (%) HCC1569,[3]; time 0,0%
same,Change in body weight (%) HCC1569,[3]; time 3,2.186% and 4.278% and -2.094% and 2.073% and 1.538% and -0.9709% and -1.493%
same,Change in body weight (%) HCC1569,[3]; time 7,3.279% and 3.743% and 1.047% and 5.181% and 1.026% and 0% and 1.99%
same,Change in body weight (%) HCC1569,[3]; time 9,0.5464% and 3.209% and 0.5236% and 3.109% and 2.5641% and 2.427% and 1.99%
same,Change in body weight (%) HCC1569,[3]; time 11,3.279% and 2.6738% and 1.571% and 2.591% and 0.5128% and 1.456% and 3.483%
same,Change in body weight (%) HCC1569,[3]; time 14,7.104% and 10.1604% and 2.6178% and 8.808% and 4.103% and 2.913% and 2.985%
same,Change in body weight (%) HCC1569,[3]; time 16,9.29% and 6.417% and 2.6178% and 5.181% and 3.077% and 4.854% and 4.975%
same,Change in body weight (%) HCC1569,[3]; time 18,8.197% and 8.556% and 3.141% and 6.218% and 3.59% and 6.796% and 0.995%
same,Change in body weight (%) HCC1569,[3]; time 21,12.5683% and 10.6952% and 5.759% and 9.326% and 8.205% and 11.6505% and 10.4478%
same,Change in body weight (%) HCC1569,[3]; time 23,13.1148% and 9.626% and 4.712% and 9.845% and 6.154% and 6.311% and 3.9801%
same,Change in body weight (%) OVCAR3,[3]; day 0,0%
same,Change in body weight (%) OVCAR3,[3]; day 3,1.389% and -3.111% and 1.796% and -4.018% and -0.4608% and -5.195% and 2.427%
same,Change in body weight (%) OVCAR3,[3]; day 7,4.63% and 0.4444% and 0.5988% and -2.232% and -0.9217% and 0% and 3.8835%
same,Change in body weight (%) OVCAR3,[3]; day 9,4.167% and -2.667% and 0% and -0.8929% and -3.226% and -2.1645% and 3.8835%
same,Change in body weight (%) OVCAR3,[3]; day 11,0% (2×) and -3.556% and 1.796% and -1.786% and -3.687% and 7.767%
same,Change in body weight (%) OVCAR3,[3]; day 14,2.778% and -1.333% and 0.5988% and -0.8929% and 0% and 0.8658% and 9.709%
same,Change in body weight (%) OVCAR3,[3]; day 16,3.7037% and -2.667% and -0.5988% and -1.786% and -4.147% and 0.4329% and 7.282%
same,Change in body weight (%) OVCAR3,[3]; day 18,4.63% and -2.222% and 0.5988% and -0.4464% and 1.843% and -1.7316% and 4.854%
same,Change in body weight (%) OVCAR3,[3]; day 21,8.7963% and 1.778% and 1.796% and -0.4464% and 2.765% and 0% and 8.252%
